{"source": "patent US20100279409A1", "about": "“METHOD FOR MODIFYING CELLUAR IMMUNE RESONSE BY MODULATING ACTIVIN ACTIVITY” (priority 2007, published 2010)", "format_in_all_cases": "cell-based, human", "key": {"NK cells [1]": {"system": "NK cells", "assay": "qRT-PCR of NK cell gene expression", "details": "16 hours", "experimental": "In a second set of experiments, 5×10^5 purified NK cells were cultured as described herein, in 24 well-plates and were then collected, and lysed after 16 hours of culture.\nThe lysates were treated to extract the mRNA, which was then subjected to qRT-PCR to determine expression of each of T-bet (a transcription factor), IFN-γ, perforin, granzyme A, and granzyme B."}, "NK cells [2]": {"system": "NK cells", "assay": "Flow cytometry of CD25 and CD56 on NK cells", "experimental": "As above, 1×10^5 purified NK cells were cultured in 96 well-plates in media that had been supplemented with IL-2 and IL-12, either with or without the addition of TLR ligands, in the presence of activin-A (100 ng/ml).\nAfter 24 hours, […] were collected, and stained with anti-CD25 antibodies, with expression being determined by flow cytometry."}, "NK cells [3]": {"system": "NK cells", "assay": "NK cell viability by caspase and PI staining", "details": "24 hours", "experimental": "With respect to testing viability, 1×10^5 purified NK cells were cultured as described supra, in 96 well-plates. After 24 hours of culture, cells were stained with antibodies to polycaspase, caspase 3/7, caspase 8 and PI."}, "NK cells [4]": {"system": "NK cells", "assay": "NKp30 expression on NK cells by flow cytometry", "details": "NK cells after 3 day culture, 100 ng/ml", "experimental": "In order to investigate the mechanism behind these differences, the same NK cells were purified and cryopreserved immediately after the 3 day culture period. The cells were thawed, washed, and stained for NCR. NKp30, with expression levels determined via flow cytometry. The level of expression was also determined using “ex vivo” samples, and NK cells that were cultured, without exposure to targets."}}}
{"substance": "activin-A", "values": [{"measurement": "IFN-γ mRNA expression", "setting": "NK cells [1]", "result": "inhibited expression of T-bet and IFN-γ significantly"}, {"measurement": "T-bet mRNA expression", "setting": "NK cells [1]", "result": "inhibited expression of T-bet and IFN-γ significantly"}, {"measurement": "perforin, granzyme A and granzyme B mRNA expression", "setting": "NK cells [1]", "result": "had no effect"}, {"measurement": "downregulation of CD56", "setting": "NK cells [2]; Example 16", "result": "suppressed"}, {"measurement": "upregulation of CD25", "setting": "NK cells [2]; Example 16", "result": "suppressed"}, {"measurement": "CD25 expression", "setting": "NK cells [2]; IL-2 and IL-12 with or without TLR ligands, activin-A 100 ng/ml, 24 hours", "result": "significantly suppressed"}, {"measurement": "apoptosis (polycaspase, caspase 3/7, caspase 8, PI staining)", "setting": "NK cells [3]", "result": "no indication of apoptosis"}, {"measurement": "NKp30 expression", "setting": "NK cells [4]", "result": "a very limited effect"}]}
